Laboratory results from US20240199624A1, “COMPOUNDS, COMPOSITIONS, AND METHODS” (CHDI Foundation, Inc., priority 2022, published 2024).
pIC50: −log10 of the molar value.

Columns and labels:
human MutSbeta [1] = target: T1, human MutSbeta (Homo sapiens, UniProt P20585+P43246); assay: P33 SPA; assay type: biochemical; settings: ATP added to compounds first, then enzyme with DNA; 2 μM ATP, 7 nM enzyme, 60 min 37° C.
T1 construct: Msh2(1-934), Gene ID NP_000242.1; Msh3(1-1137), Gene ID J04810.1
Method: (§1) P33 SPA: Enzyme human MutSbeta (Msh2(1-934), Gene ID NP_000242.1, Msh3(1-1137), Gene ID J04810.1) and 22 bp biotin-labeled DNA containing a GT-mismatch (purchased from Curia Global, TOP 5′-[…]-3′; BOT 3′-AGTAGCTAGGC - - - CGAAGTCTACC-5′-Biotin) were pre-incubated at equimolar concentration for 15 min at room temperature (“RT”) in assay buffer (25 mM HEPES pH=7.5, 150 mM KCl, 2 mM MgCl2, 2 mM GSH, 0.01% Tween-20). ATP (10 μL, 2× final concentration of γ-[^33P]-ATP (final 0.1 nM; Hartmann Analytic, FF-301) and cold ATP (final 2 μM)) was added to compounds (400 nL spotted as concentration response in 100% DMSO into wells of an OptiPlate) and pre-incubated for 30 min at RT. Then, enzyme with DNA was added (10 μL, 2× final concentration of 7 nM) and incubated for 60 min at 37° C. in a total volume of 20 μL per well. Decay of [^33P] with a half-life of 25.4 days was corrected by increasing the concentration of the labelled nucleotide with the appropriate factor; all steps with radioactive ATP were conducted behind appropriate shielding. Then, 20 μL of a 1:2 mix of ammonium molybdate (20 mg/mL Ammonium molybdate in 2.4 M HCl) and SPA beads (ProteinA SPA beads from Perkin Elmer Cat #RPNQ0019 at 7.5 mg/mL+1% azide) was added per well and incubated at RT for 2 min. Then, 40 μL of 7 M CsCl and 0.1 M citrate was added per well and incubated for 20 h at RT before measuring on the MicroBeta (top read mode, 1 min per well). For full plate processing, all reagents were transferred with a pipettor (Selma, CyBio) apart from the final reagent (CsCl+citrate) which was added with a dispenser (MultiFlo, BioTek). Data analysis during assay development was done with Prism GraphPad.

human MutSbeta [2] = target: T1, human MutSbeta; assay: P33 SPA 1.1; assay type: biochemical; settings: Table 5A; enzyme first added to compounds, then ATP
Method: as §1
P33 SPA 11: For the SPA 1.1 assay, the addition of reagents was reversed, i.e. enzyme was first added to the compounds and pre-incubated followed by ATP addition; thus, the assay was aligned with ADP Glo 1.1 reagent addition order. The assay was repeated under similar conditions, and the results are shown below in Table 5B. It is contemplated the solubility of the compounds and/or varying test occasions may account for variability of assay results.

human MutSbeta [3] = target: T1, human MutSbeta; assay: ADP Glo assay 2.1; assay type: biochemical; settings: 10 μM ATP, 7 nM enzyme; buffer with 5 mM GSH, 0.2% Ovalbumin
Method: (§2) ADP Glo assay 2.1: Enzyme human MutSbeta (Msh2(1-934), Gene ID NP_000242.1, Msh3(1-1137), Gene ID J04810.1) with 22 bp biotin-labeled DNA containing a GT-mismatch (purchased from Curia Global, TOP 5′-[…]-3′; BOT 3′-AGTAGCTAGGC - - - CGAAGTCTACC-5′-Biotin) was pre-incubated in assay buffer (25 mM HEPES pH=7.5, 150 mM KCl, 5 mM MgCl2, 5 mM GSH, 0.1% Pluronic F-127, 0.2% Ovalbumin) to allow formation of the enzyme-DNA complex. Plates with spotted compounds in serial dilutions in DMSO (80 nL) were filled with ATP (2 μL, 10 μM final concentration) followed by an incubation of 30 min at RT. Then, enzyme was added (2 μL, 7 nM final concentration) and the reaction was allowed to proceed for 60 min at 37° C. After the ATPase reaction, the commercially available “ADP-Glo Reagent” was added (incubate 40 min at RT) to deplete remaining ATP via the activity of […]. Subsequently, the commercially available “Kinase Detection Reagent” converted ADP to ATP via the activity of PEP and Pyruvate kinase. The ATP was then converted into light by Ultra-Glo Luciferase. The obtained luminescence was proportional to the ADP concentration generated during the initial ATPase reaction. The luminescence signal was measured with an Envision reader, raw data were analyzed towards controls (full reaction=0% inhibition; no reaction in absence of enzyme=100% inhibition) and IC50 curves were analyzed with the inhouse software Aplus.

human MutSbeta [4] = target: T1, human MutSbeta; assay: ADP Glo assay 1.1; assay type: biochemical; settings: SPA buffer, no Ovalbumin; enzyme added to compounds before ATP; read-out: ADP Gol 1.1 assay IC50
Method: as §2
ADP Glo assay 1.1: The ADP Glo 2.1 assay was adapted to enable assessment of a more direct interaction of the compound with the enzyme: (1) the SPA buffer was applied (25 mM HEPES pH=7.5, 150 mM KCl, 2 mM MgCl2, 2 mM GSH, 0.01% Tween-20) which contained no decoy Ovalbumin protein. (2) The order of reagent addition was changed, and enzyme was now added directly to the spotted compounds before addition of ATP.

human MutSα = target: T2, human MutSα (Homo sapiens, UniProt P43246+P52701); assay: ADP Glo assay with MutSα (2.1); assay type: biochemical; settings: 15 nM MutSα/DNA, 30 μM ATP
T2 construct: Msh2(1-934), Gene ID NP_000242.1; Msh6(1-1360), Gene ID NP_001393725.1
Method: as §2
ADP Glo assay with MutSα (2.1): The ADP Glo assay version 2.1 with the enzyme human MutSα (Msh2(1-934), Gene ID NP_000242.1, Msh6(1-1360), Gene ID NP_001393725.1) was based on the same principle and protocol steps as the MutSβ assay. A 22 bp biotin-labeled DNA containing a GT-mismatch (purchased from Curia Global, TOP 5′-[…]-3′; BOT 3′-AGTAGCTAGGC - - - CGAAGTCTACC-5′-Biotin) was used for binding to MutSα. For this assay, concentrations of enzyme and ATP were optimized to 15 nM MutSα/DNA and 30 μM ATP.

[5] = P33 SPA counter assay (absence of enzyme); settings: interference with detection system
Method: P33 SPA counter assay: This assay was used in the absence of enzyme to determine whether the test compound interferes with the detection system. Otherwise, the same protocol and assay buffer as in the main SPA assay were applied (25 mM HEPES pH=7.5, 150 mM KCl, 2 mM MgCl2, 2 mM GSH, 0.01% Tween-20) and instead of enzyme addition, assay buffer was added. Hydrolysis of substrate (γ-[^33P]-ATP, 0.1 nM; Hartmann Analytic, FF-301; and cold ATP, 10 μM) to a similar level as under enzymatic conditions was achieved by incubation at 50° C. for 4 days. Decay of [^33P] with a half-life of 25.4 days was corrected by increasing the concentration of the labelled nucleotide with the appropriate factor; all steps with radioactive ATP were conducted behind appropriate shielding. After addition of pre-treated ATP substrate (10 μL) to the compounds and addition of buffer (10 μL, instead of enzyme), 20 μL of a 1:2 mix of ammonium molybdate (20 mg/mL Ammonium molybdate in 2.4M HCl) and SPA beads (ProteinA SPA beads from Perkin Elmer Cat #RPNQ0019 at 7.5 mg/mL+1% azide) was added per well and incubated at RT for 2 min. Then, 40 μL of 7 M CsCl and 0.1 M citrate was added per well and incubated for 1 h at room temperature before measuring on the MicroBeta (top read mode, 1 min per well). For full plate processing, all reagents were transferred with a pipettor (Selma, CyBio) apart from the final reagent (CsCl+citrate) which was added with a dispenser (MultiFlo, BioTek). Data analysis during assay development was done with Prism GraphPad, and IC50 fitting for whole compound plates was done with the in-house software Aplus.

T2 sequence (P43246 whole entry): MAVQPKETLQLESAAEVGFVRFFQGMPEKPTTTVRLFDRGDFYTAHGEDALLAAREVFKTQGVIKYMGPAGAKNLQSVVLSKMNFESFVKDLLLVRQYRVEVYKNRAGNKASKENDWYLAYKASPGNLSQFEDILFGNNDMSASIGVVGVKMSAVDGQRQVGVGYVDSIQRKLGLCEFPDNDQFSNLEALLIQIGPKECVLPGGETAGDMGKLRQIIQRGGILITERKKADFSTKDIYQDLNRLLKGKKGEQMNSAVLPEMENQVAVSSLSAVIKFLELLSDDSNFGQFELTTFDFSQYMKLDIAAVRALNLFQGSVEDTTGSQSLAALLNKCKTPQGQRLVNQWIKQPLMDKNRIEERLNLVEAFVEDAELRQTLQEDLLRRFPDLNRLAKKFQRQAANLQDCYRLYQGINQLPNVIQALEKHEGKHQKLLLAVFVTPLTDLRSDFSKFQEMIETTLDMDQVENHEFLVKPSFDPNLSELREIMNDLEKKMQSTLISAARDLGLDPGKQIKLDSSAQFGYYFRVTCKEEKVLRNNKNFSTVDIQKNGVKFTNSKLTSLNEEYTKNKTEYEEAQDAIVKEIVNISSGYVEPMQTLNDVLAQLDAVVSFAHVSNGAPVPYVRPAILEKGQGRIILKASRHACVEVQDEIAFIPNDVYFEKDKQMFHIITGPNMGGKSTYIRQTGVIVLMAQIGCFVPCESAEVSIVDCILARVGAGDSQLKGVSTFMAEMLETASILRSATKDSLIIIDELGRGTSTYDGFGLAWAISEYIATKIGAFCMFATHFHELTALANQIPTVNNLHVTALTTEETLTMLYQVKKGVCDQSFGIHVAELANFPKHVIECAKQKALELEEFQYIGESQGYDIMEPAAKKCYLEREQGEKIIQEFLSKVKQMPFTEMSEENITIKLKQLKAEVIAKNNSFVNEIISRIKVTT
T2 sequence (P52701 whole entry): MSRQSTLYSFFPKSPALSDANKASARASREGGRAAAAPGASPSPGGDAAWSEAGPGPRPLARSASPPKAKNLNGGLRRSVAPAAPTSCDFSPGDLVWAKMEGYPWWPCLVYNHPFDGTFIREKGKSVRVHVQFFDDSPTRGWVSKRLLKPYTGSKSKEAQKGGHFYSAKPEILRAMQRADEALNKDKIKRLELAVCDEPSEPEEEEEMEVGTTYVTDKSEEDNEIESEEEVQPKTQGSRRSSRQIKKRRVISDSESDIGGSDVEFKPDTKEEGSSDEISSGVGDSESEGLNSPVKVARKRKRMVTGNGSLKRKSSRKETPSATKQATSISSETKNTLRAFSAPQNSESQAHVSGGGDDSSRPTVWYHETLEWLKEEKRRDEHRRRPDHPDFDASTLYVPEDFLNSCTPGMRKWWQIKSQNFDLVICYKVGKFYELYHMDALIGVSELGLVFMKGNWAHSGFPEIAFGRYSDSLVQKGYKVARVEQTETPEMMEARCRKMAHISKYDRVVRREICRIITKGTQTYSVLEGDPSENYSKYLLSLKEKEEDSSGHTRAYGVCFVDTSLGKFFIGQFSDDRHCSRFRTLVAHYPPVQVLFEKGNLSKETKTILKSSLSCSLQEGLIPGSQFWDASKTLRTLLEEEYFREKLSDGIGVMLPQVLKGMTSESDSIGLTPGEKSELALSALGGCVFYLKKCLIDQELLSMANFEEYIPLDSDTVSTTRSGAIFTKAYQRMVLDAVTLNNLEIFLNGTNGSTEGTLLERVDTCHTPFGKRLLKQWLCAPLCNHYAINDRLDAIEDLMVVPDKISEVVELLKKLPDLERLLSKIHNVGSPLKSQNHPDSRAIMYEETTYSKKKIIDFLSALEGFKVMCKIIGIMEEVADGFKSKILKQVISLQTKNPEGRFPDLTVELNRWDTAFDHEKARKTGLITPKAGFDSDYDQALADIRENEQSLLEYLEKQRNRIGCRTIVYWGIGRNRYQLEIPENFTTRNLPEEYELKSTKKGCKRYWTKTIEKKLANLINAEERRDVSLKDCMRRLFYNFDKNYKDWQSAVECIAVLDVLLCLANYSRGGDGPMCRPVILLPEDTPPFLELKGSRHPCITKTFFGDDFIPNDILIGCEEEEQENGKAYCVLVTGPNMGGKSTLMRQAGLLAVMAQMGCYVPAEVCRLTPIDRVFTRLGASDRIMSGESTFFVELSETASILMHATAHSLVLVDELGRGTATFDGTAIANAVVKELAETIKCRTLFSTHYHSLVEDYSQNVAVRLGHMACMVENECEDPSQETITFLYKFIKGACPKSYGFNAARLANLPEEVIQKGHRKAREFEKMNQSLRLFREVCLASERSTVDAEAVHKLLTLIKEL
T1 sequence (P43246 whole entry): as the sequence (P43246 whole entry) above
T1 sequence (P20585 whole entry): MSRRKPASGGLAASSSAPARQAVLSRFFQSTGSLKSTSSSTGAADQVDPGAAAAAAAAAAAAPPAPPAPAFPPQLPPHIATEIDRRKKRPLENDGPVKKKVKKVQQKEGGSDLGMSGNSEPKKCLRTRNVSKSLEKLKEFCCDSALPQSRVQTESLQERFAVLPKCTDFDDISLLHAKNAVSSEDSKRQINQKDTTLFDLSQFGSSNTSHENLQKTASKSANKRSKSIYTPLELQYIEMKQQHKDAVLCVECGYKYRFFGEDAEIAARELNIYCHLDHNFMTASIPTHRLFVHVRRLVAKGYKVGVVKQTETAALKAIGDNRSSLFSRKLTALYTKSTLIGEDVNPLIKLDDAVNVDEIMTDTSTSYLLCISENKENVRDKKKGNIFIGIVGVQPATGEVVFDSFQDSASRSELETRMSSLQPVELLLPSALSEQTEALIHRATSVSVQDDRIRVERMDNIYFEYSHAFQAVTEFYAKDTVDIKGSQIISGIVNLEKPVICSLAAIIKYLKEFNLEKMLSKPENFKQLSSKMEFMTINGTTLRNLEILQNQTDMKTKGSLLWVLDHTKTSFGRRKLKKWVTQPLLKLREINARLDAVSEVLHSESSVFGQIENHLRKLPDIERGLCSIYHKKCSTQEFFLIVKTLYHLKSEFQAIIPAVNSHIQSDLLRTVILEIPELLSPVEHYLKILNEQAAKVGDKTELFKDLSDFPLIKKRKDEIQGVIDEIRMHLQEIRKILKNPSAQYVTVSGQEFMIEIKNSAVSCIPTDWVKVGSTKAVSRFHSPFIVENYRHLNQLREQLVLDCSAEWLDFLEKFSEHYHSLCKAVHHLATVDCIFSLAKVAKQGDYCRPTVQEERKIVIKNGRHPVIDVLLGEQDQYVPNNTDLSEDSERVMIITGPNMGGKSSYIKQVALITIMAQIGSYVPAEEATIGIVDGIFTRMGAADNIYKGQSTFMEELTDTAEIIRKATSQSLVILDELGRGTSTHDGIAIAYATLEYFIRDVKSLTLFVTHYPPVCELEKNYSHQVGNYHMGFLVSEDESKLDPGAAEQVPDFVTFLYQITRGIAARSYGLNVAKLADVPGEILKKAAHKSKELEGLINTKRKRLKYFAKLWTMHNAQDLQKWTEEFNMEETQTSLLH

| SMILES | pIC50 (human MutSbeta [1]) | pIC50 (human MutSbeta [2]) | pIC50 (human MutSbeta [3]) | pIC50 (human MutSbeta [4]) | pIC50 (human MutSα) | pIC50 [5] |
| --- | --- | --- | --- | --- | --- | --- |
| CN1CCN(c2nc(NCc3ccccc3)c3nccnc3n2)CC1 [Compound 5, N-benzyl-2-(4-methylpiperazin-1-yl)pteridin-4-amine] | 4.51 | 4.35 | 3.83 | 4.20 | < 3.70 | < 3.70 |
| Cc1cccc(Nc2nc(N3CCN(C)CC3)nc3nccnc23)c1 [Compound 6, 2-(4-methylpiperazin-1-yl)-N-(m-tolyl)pteridin-4-amine] | 4.58 | 4.38 | 4.33 | 4.09 | – | < 3.70 |
| Cc1ccc(Nc2nc(N3CCN(C)CC3)nc3nccnc23)cc1Cl [Compound 20, N-(3-chloro-4-methyl-phenyl)-2-(4-methylpiperazin-1-yl)pteridin-4-amine] | 4.89 | 4.36 | 3.86 | 3.96 | 4.57 | < 3.70 |

Further compounds by rising pIC50 (human MutSbeta [1]), results first:

| pIC50 (human MutSbeta [1]) | pIC50 (human MutSbeta [2]) | pIC50 (human MutSbeta [3]) | pIC50 (human MutSbeta [4]) | pIC50 (human MutSα) | pIC50 [5] | SMILES |
| --- | --- | --- | --- | --- | --- | --- |
| 3.91 | < 3.70 | < 3.70 | < 3.70 | 4.37 | < 3.70 | CCN1CCN(c2nc(Nc3ccc(F)c(F)c3)c3nccnc3n2)CC1 [Compound 16, N-(3,4-difluorophenyl)-2-(4-ethylpiperazin-1-yl)pteridin-4-amine] |
| 4.68 | 4.61 | 4.49 | 4.37 | 4.37 | – | CCN1CCN(c2nc(Nc3ccc(F)c(C)c3)c3nccnc3n2)CC1 [Compound 3, 2-(4-ethylpiperazin-1-yl)-N-(4-fluoro-3-methyl-phenyl)pteridin-4-amine] |
